Target: C-Raf FL (full length CRAF with Y340E and Y341E activating mutations, co-expressed with h14-3-3 zeta) (Homo sapiens (Human), UniProt P04049, Y340E/Y341E)
Test: In vitro Raf activity determination, AlphaScreen p-MEK readout, c-Raf (C-Raf FL)
Type: biochemical
Conditions: c-Raf approximately 4 nM, ATP 1 μM, pre-incubation 60 minutes, reaction 1 hour
Method in brief: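 Phosphorylation of kinase-dead biotinylated MEK1 (~10 nM) by C-Raf FL (~4 nM) read by AlphaScreen luminescence with anti-phospho-MEK1/2 after EDTA stop. ATP was 1 μM, with a 1 h reaction at room temperature. Compounds were pre-incubated with enzyme and substrate for 60 min in Tris/MgCl2 buffer, pH 7.5.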

Sequence of C-Raf FL (full length CRAF with Y340E and Y341E activating mutations, co-expressed with h14-3-3 zeta) (P04049 whole entry Y340E/Y341E): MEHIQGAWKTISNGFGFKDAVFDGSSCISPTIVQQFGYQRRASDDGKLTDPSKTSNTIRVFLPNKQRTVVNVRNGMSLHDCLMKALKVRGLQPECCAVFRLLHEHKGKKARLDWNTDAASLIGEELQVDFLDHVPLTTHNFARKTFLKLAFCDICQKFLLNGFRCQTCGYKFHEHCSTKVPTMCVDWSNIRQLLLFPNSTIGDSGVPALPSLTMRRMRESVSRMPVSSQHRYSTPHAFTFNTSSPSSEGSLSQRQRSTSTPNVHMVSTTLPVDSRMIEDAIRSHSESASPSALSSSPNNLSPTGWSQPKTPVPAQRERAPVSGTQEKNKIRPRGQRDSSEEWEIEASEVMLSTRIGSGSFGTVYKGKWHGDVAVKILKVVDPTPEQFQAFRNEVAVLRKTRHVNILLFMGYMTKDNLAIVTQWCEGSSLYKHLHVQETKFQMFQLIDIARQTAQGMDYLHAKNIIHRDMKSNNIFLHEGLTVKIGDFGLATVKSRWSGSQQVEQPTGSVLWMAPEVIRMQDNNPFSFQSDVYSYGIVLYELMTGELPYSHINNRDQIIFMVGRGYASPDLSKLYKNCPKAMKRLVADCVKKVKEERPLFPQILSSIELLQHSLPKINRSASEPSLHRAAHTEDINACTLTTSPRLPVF
Sequence of C-Raf FL (full length CRAF with Y340E and Y341E activating mutations, co-expressed with h14-3-3 zeta) (P63104 whole entry partner): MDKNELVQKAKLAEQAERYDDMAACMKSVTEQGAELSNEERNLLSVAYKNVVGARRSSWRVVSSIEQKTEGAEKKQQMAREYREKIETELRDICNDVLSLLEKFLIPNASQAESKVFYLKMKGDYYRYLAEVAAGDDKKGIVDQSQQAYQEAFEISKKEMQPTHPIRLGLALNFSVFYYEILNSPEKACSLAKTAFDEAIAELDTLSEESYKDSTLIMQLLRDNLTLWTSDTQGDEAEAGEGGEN

SMILES | IC50 [nM]
Cc1ncc(NC(=O)c2cccc(C(F)(F)F)c2)cc1-c1cc2c(cc1F)C[C@@](F)(CO)[C@@H]1COCCN21 [Example 484, N-(5-((4aS,5S)-5,8-difluoro-5-(hydroxymethyl)-1,2,4,4a,5,6-hexahydro-[1,4]oxazino[4,3-a]quinolin-9-yl)-6-methylpyridin-3-yl)-3-(trifluoromethyl) benzamide] | 4.1
Cc1ccc(NC(=O)c2ccnc(C(C)(F)F)c2)cc1-c1ccc2c(c1)N1CCOC[C@@H]1C[C@H]2O (single isomer, unassigned) [Example 20] | 0.025
Cc1ccc(NC(=O)c2cnnc(C(F)(F)F)c2)cc1-c1cc2c(cc1F)C[C@@](F)(CO)[C@@H]1COCCN21 [Example 482, N-(3-((4aS,5S)-5,8-difluoro-5-(hydroxymethyl)-1,2,4,4a,5,6-hexahydro-[1,4]oxazino[4,3-a]quinolin-9-yl)-4-methylphenyl)-6-(trifluoromethyl) pyridazine-4-carboxamide] | 0.3
CCN1C(=O)CC2COCCN2c2cc(-c3cc(NC(=O)c4ccnc(C(C)(F)F)c4)ccc3C)cnc21 (racemic) [Example 125, rac-2-(1,1-Difluoroethyl)-N-(3-(7-ethyl-6-oxo-1,2,4a,5,6,7-hexahydro-4H-[1,4]oxazino[4,3-d]pyrido[2,3-b][1,4]diazepin-10-yl)-4-methylphenyl)isonicotinamide] | 0.034
Cc1ncc(NC(=O)c2ccnc(C(C)(F)F)c2)cc1-c1ccc2c(c1)N1CCOC[C@@H]1[C@](C)(C#N)C2 [Example 376, N-(5-((4aS,5R)-5-cyano-5-methyl-1,2,4,4a,5,6-hexahydro-[1,4]oxazino[4,3-a]quinolin-9-yl)-6-methylpyridin-3-yl)-2-(1,1-difluoroethyl)isonicotinamide] | 0.5
Cc1ccc(NC(=O)c2ccnc(C(F)(F)F)c2)cc1-c1cnc2c(c1)N1CCOC[C@H]1C[C@@]2(C)O (racemic) [Example 39, (rac)-(trans)-N-(3-(6-hydroxy-6-methyl-1,2,4,4a,5,6-hexahydro-[1,4]oxazino[4,3-a][1,5]naphthyridin-9-yl)-4-methylphenyl)-2-(trifluoromethyl)isonicotinamide] | 0.0023
Cc1ncc(NC(=O)c2cccc(C(F)(F)F)c2)cc1-c1cnc2c(c1)N1CCOCC1C1(COC1)C2 (racemic) [Example 156, rac-N-(6-methyl-5-(2,4,4a,6-tetrahydro-1H-spiro[[1,4]oxazino[4,3-a][1,5]naphthyridine-5,3′-oxetan]-9-yl)pyridin-3-yl)-3-(trifluoromethyl)benzamide] | 0.048
Cc1ccc(NC(=O)c2ccnc(C(F)(F)F)c2)cc1-c1cnc2c(c1)N1CCOC[C@H]1C1(COC1)C2 [Example 154, (R)-N-(4-methyl-3-(1′,2′,4′,4a′-tetrahydro-6′H-spiro[oxetane-3,5′-[1,4]oxazino[4,3-a][1,5]naphthyridin]-9′-yl)phenyl)-2-(trifluoromethyl)isonicotinamide] | 0.063
Cc1ncc(NC(=O)c2ccnc(C(C)(C)F)c2)cc1-c1ccc2c(c1)N1CCOCC[C@H]1C[C@H]2O [Example 444] | 0.4
Cc1ncc(NC(=O)c2cccc(C(F)(F)F)c2)cc1-c1cnc2c(c1)[C@@H]1CCOC[C@H]1C(=O)N2CCO [Example 259, N-(5-((4aS, 10bR)-6-(2-hydroxyethyl)-5-oxo-2,4,4a,5,6,10b-hexahydro-1H-pyrano[3,4-c][1,8]naphthyridin-9-yl)-6-methylpyridin-3-yl)-3-(trifluoromethyl) benzamide] | 0.6
Cc1ncc(NC(=O)c2cccc(C(F)(F)F)c2)cc1-c1cnc2c(c1)N1CCOC[C@H]1[C@H](C(C)(C)O)C2 [Example 458, N-(5-((4aR,5R)-5-(2-hydroxypropan-2-yl)-1,2,4,4a,5,6-hexahydro-[1,4]oxazino[4,3-a][1,5]naphthyridin-9-yl)-6-methylpyridin-3-yl)-3-(trifluoro-methyl)benzamide] | 0.7
CCN1C(=O)C2CCOCCC2c2cc(-c3cc(NC(=O)c4cccc(C(F)(F)F)c4)cnc3C)cnc21 (stereo not drawn) [Example 250, N-(5-((5a, 11b- trans)-7-ethyl-6-oxo-1,2,4,5,5a,6,7,11b-octahydrooxepino [4,5-c][1,8]naphthyridin-10-yl)-6-methylpyridin-3-yl)-3-(trifluoromethyl) benzamide] | 0.3
Cc1ncc(NC(=O)c2cccc(C(F)(F)F)c2)cc1-c1cnc2c(c1)C1CCOCCC1C(=O)N2CCO (centres unmarked) [Example 285, N-(5-(7-(2-hydroxyethyl)-6-oxo-1,2,4,5,5a,6,7,11b-octahydrooxepino [4,5-c][1,8]naphthyridin-10-yl)-6-methylpyridin-3-yl)-3-(trifluoromethyl) benzamide] | 0.1
Cc1ccc(NC(=O)c2ccnc(C(C)(F)F)c2)cc1-c1ccc2c(c1)N1CCOCC1C(F)(CO)C2 (racemic) [Example 78, (rac)-2-(1,1-difluoroethyl)-N-(3-(5-fluoro-5-(hydroxymethyl)-1,2,4,4a,5,6-hexahydro-[1,4]oxazino[4,3-a]quinolin-9-yl)-4-methylphenyl)isonicotinamide] | 0.02
Cc1ncc(NC(=O)c2ccnc(C(C)(F)F)c2)cc1-c1ccc2c(c1)N1CCOC[C@H]1[C@@](C)(C#N)C2 (racemic) [Example 89, (rac)-N-(5-(5-cyano-5-methyl-1,2,4,4a,5,6-hexahydro-[1,4]oxazino[4,3-a]quinolin-9-yl)-6-methylpyridin-3-yl)-2-(1,1-difluoroethyl)isonicotinamide] | 0.036
Cc1ccc(NC(=O)c2ccnc(C(F)(F)F)c2)cc1-c1ccc2c(c1)N1CCOC[C@H]1C[C@H]2O (racemic) [Example 3, (rac)-(trans)-N-(3-(6-hydroxy-1,2,4,4a,5,6-hexahydro-[1,4]oxazino[4,3-a]quinolin-9-yl)-4-methylphenyl)-2-(trifluoromethyl)isonicotinamide] | 0.031
CCN1C(=O)CC2CCOCCN2c2cc(-c3cc(NC(=O)c4cccc(C(F)(F)F)c4)cnc3C)cnc21 (centres unmarked) [Example 315, N-(5-(8-ethyl-7-oxo-1,2,4,5,5a,6,7,8-octahydropyrido[3′, 2′:2,3][1,4]diazepino [1,7-d][1,4]oxazepin-11-yl)-6-methylpyridin-3-yl)-3-(trifluoromethyl) benzamide] | 1.7
Cc1ccc(NC(=O)c2ccnc(C(C)(F)F)c2)cc1-c1cnc2c(c1)N1CCOC[C@H]1[C@H](F)[C@H]2O (relative stereo) [Example 140, rac-2-(1,1-difluoroethyl)-N-(3-((4aS*,5S*,6S*)-5-fluoro-6-hydroxy-1,2,4,4a,5,6-hexahydro-[1,4]oxazino[4,3-a][1,5]naphthyridin-9-yl)-4-methylphenyl)isonicotinamide] | 0.0085
Cc1ccc(NC(=O)c2ccnc(C(C)(F)F)c2)cc1-c1cnc2c(c1)N1CCOC[C@H]1C(C)(C)[C@H]2O [Example 161, 2-(1,1-difluoroethyl)-N-(3-((4aR,6R)-6-hydroxy-5,5-dimethyl-1,2,4,4a,5,6-hexahydro-[1,4]oxazino[4,3-a][1,5]naphthyridin-9-yl)-4-methylphenyl)isonicotinamide] | 0.08
CCN1C[C@H]2CCOCCN2c2cc(-c3cc(NC(=O)c4cccc(C(F)(F)F)c4)cnc3C)cnc2C1=O [Example 507, (R)-N-(5-(7-ethyl-8-oxo-1,2,4,5,5a,6,7,8-octahydropyrido[2′, 3′:6,7][1,4]diazepino [1,2-d][1,4]oxazepin-11-yl)-6-methylpyridin-3-yl)-3-(trifluorometh-yl)benzamide] | 26.9
